Literature values as cited in US20100215736A1, “ORAL DOSAGE FORM PROVIDING FAST ADSORPTION OF DRUG” (NOVARTIS AG, priority 2007, published 2010).

Details: in vivo

## CC(C)Cc1ccc(C(C)C(=O)[O-])cc1.O.O.[Na+] (stereo not shown) [ibuprofen sodium dihydrate salt]
  tmax: 36 min
